Experimental data as given in patent publication US20120316187A1, “MOLECULAR BIOMARKERS FOR PREDICTING RESPONSE TO TYROSINE KINASE INHIBITORS IN LUNG CANCER” (PANGAEA BIOTECH, S.L., priority 2009, published 2012).
Like-named read-outs stand apart in the source and are kept apart here.

Assays:
[1] = test system: non-small-cell lung cancer patients with EGFR mutations; settings: for TTP (months): first line treatment with erlotinib
Text: The term “clinical response”, as used herein, refers to the response of the subject suffering from NSCLC to a therapy with a tyrosine kinase inhibitor. Standard criteria (Miller, et al. Cancer, 1981; 47:207-14) that can be used herewith to evaluate the response to chemotherapy include response, stabilization and progression. It can be a complete response (or complete remission) which is the disappearance of all detectable malignant disease or a partial response which is defined as approximately >50% decrease in the sum of products of the largest perpendicular diameters of one or more lesions (tumor lesions), no new lesions and no progression of any lesion. Patients achieving complete or partial response were considered “responders”, and all other patients were considered “non-responders”.
The presence of the T790M mutation was examined in 129 patients for whom pretreatment tumor tissue was available.

[2] = test system: T790M resistance mutants; settings: in vitro; cited from earlier work
[3] = 81 patients, BRCA1 4.92-10.7 N = 27
[4] = 81 patients, BRCA1 >10.7 N = 27
[5] = 81 patients, BRCA1 ≦4.92 N = 27
[6] = 129 patients, patients with the T790M mutation
[7] = 129 patients, patients without the T790M mutation
[8] = patients with the T790M mutation, BRCA1 4.92-11.79
[9] = patients with the T790M mutation, BRCA1 >11.79
[10] = patients with the T790M mutation, BRCA1 ≦4.92
[11] = patients without the T790M mutation, BRCA1 4.92-11.79
[12] = patients without the T790M mutation, BRCA1 >11.79
[13] = patients without the T790M mutation, BRCA1 ≦4.92

## C#Cc1cccc(Nc2ncnc3cc(OCCOC)c(OCCOC)cc23)c1 [erlotinib, [6,7-bis(2-methoxyethoxy)-4-quinazolin-4-yl]-(3-ethynylphenyl)amine]
[1]; 28 patients harboring the T790M mutation, high BRCA1 levels
  median progression-free survival: 8 months
[1]; 28 patients harboring the T790M mutation, intermediate BRCA1 levels
  median progression-free survival: 4 months
[1]; 28 patients harboring the T790M mutation, low BRCA1 levels
  median progression-free survival: 19 months
[1]; 34 patients receiving erlotinib as first-line treatment (so in the source), high BRCA1 levels
  progression-free survival: 9 months
[1]; 34 patients receiving erlotinib as first-line treatment (so in the source), intermediate BRCA1 levels
  progression-free survival: 24 months
[1]; 34 patients receiving erlotinib as first-line treatment (so in the source), low BRCA1 levels
  progression-free survival: not reached
[1]; 47 patients receiving erlotinib as first-line treatment, high BRCA1 levels
  progression-free survival: 16 months
[1]; 47 patients receiving erlotinib as first-line treatment, intermediate BRCA1 levels
  progression-free survival: 9 months
[1]; 47 patients receiving erlotinib as first-line treatment, low BRCA1 levels
  progression-free survival: 27 months
[1]; 53 patients without the T790M mutation, high BRCA1 levels
  median progression-free survival: 12 months
[1]; 53 patients without the T790M mutation, intermediate BRCA1 levels
  median progression-free survival: not reached
[1]; 53 patients without the T790M mutation, low BRCA1 levels
  median progression-free survival: 27 months
[1]; 64 patients receiving erlotinib as second-line treatment, with the T790M mutation
  progression-free survival: 13 months
[1]; 64 patients receiving erlotinib as second-line treatment, without the T790M mutation
  progression-free survival: 18 months
[1]; 65 patients receiving erlotinib as first-line treatment, with the T790M mutation
  progression-free survival: 8 months
[1]; 65 patients receiving erlotinib as first-line treatment, without the T790M mutation
  progression-free survival: 18 months
[1]; [3]
  Complete or partial response, (%): (72) %
  Complete response, (%): (16) %
  Partial response, (%): (56) %
  Progressive disease, (%): (12) %
  Stable disease, (%): (16) %
[1]; [4]
  Complete or partial response, (%): (68.2) %
  Complete response, (%): (9.1) %
  Partial response, (%): (59.1) %
  Progressive disease, (%): (9.1) %
  Stable disease, (%): (22.7) %
[1]; [5]
  Complete or partial response, (%): (76) %
  Complete response, (%): (20) %
  Partial response, (%): (56) %
  Progressive disease, (%): (8) %
  Stable disease, (%): (16) %
[1]; 81 patients, high BRCA1 levels
  Median progression-free survival to erlotinib: 10 months
[1]; 81 patients, intermediate BRCA1 levels
  Median progression-free survival to erlotinib: 18 months
[1]; 81 patients, intermediate or high BRCA1 levels
  Overall survival: not reached
[1]; 81 patients, low BRCA1 levels
  Median progression-free survival to erlotinib: 27 months
  Overall survival: 33 months
[1]; [6]
  Overall survival: 27 months
  median progression-free survival: 12 months
[1]; [7]
  Overall survival: 29 months
  median progression-free survival: 18 months
[1]; All patients N = 129
  Complete or partial response, (%): (68.9) %
  Complete response, (%): (10.3) %
  Partial response, (%): (58.6) %
  Progressive disease, (%): (12.9) %
  Stable disease, (%): (18.1) %
[1]; T790M-negative N = 84
  Complete or partial response, (%): (72.3) %
  Complete response, (%): (13.9) %
  Partial response, (%): (58.3) %
  Progressive disease, (%): (11.1) %
  Stable disease, (%): (16.7) %
[1]; T790M-positive N = 45
  Complete or partial response, (%): (63.6) %
  Complete response, (%): (4.5) %
  Partial response, (%): (59.1) %
  Progressive disease, (%): (15.9) %
  Stable disease, (%): (20.5) %
[1]; T790M mutation No, BRCA1 levels High/Intermediate
  TTP (months): 18 months
[1]; T790M mutation No, BRCA1 levels Low
  TTP (months): 27 months
[1]; T790M mutation Yes, BRCA1 levels High/Intermediate
  TTP (months): 3 months
[1]; T790M mutation Yes, BRCA1 levels Low
  TTP (months): 27 months
[1]; [8]
  Complete or partial response, number of patients: 5
  Complete or partial response, share in parentheses: (55.6)
  Complete response, number of patients: 0
  Complete response, share in parentheses: (0)
  Partial response, number of patients: 5
  Partial response, share in parentheses: (55.6)
  Progressive disease, number of patients: 2
  Progressive disease, share in parentheses: (22.2)
  Stable disease, number of patients: 2
  Stable disease, share in parentheses: (22.2)
[1]; [9]
  Complete or partial response, number of patients: 7
  Complete or partial response, share in parentheses: (77.8)
  Complete response, number of patients: 1
  Complete response, share in parentheses: (11.1)
  Partial response, number of patients: 6
  Partial response, share in parentheses: (66.7)
  Progressive disease, number of patients: 1
  Progressive disease, share in parentheses: (11.1)
  Stable disease, number of patients: 1
  Stable disease, share in parentheses: (11.1)
[1]; [10]
  Complete or partial response, number of patients: 7
  Complete or partial response, share in parentheses: (70)
  Complete response, number of patients: 1
  Complete response, share in parentheses: (10)
  Partial response, number of patients: 6
  Partial response, share in parentheses: (60)
  Progressive disease, number of patients: 1
  Progressive disease, share in parentheses: (10)
  Stable disease, number of patients: 2
  Stable disease, share in parentheses: (20)
[1]; [11]
  Complete or partial response, number of patients: 13
  Complete or partial response, share in parentheses: (76.5)
  Complete response, number of patients: 4
  Complete response, share in parentheses: (23.5)
  Partial response, number of patients: 9
  Partial response, share in parentheses: (52.9)
  Progressive disease, number of patients: 1
  Progressive disease, share in parentheses: (5.9)
  Stable disease, share in parentheses: (17.6)
[1]; [12]
  Complete or partial response, number of patients: 7
  Complete or partial response, share in parentheses: (63.6)
  Complete response, number of patients: 1
  Complete response, share in parentheses: (9.1)
  Partial response, number of patients: 6
  Partial response, share in parentheses: (54.5)
  Progressive disease, number of patients: 1
  Progressive disease, share in parentheses: (9.1)
  Stable disease, share in parentheses: (27.3)
[1]; [13]
  Complete or partial response, number of patients: 13
  Complete or partial response, share in parentheses: (81.3)
  Complete response, number of patients: 4
  Complete response, share in parentheses: (25)
  Partial response, number of patients: 9
  Partial response, share in parentheses: (56.3)
  Progressive disease, number of patients: 1
  Progressive disease, share in parentheses: (6.3)
  Stable disease, number of patients: 2
  Stable disease, share in parentheses: (12.5)
[1]; subgroup of 48 patients with L858R, with the T790M mutation
  progression-free survival: 16 months
[1]; subgroup of 48 patients with L858R, without the T790M mutation
  progression-free survival: 15 months
[1]; subgroup of 81 patients with del 19, with the T790M mutation
  progression-free survival: 12 months
[1]; subgroup of 81 patients with del 19, without the T790M mutation
  progression-free survival: 20 months

## CC#CC(=O)Nc1ccc2ncnc(Nc3cccc(Br)c3)c2c1 [CL-387,785]
[2]
  inhibition of growth of the T790M resistance mutants: inhibit the growth of the T790M resistance mutants
